The text below walks through data of ChEMBL document CHEMBL1147696, “Discovery of bitriazolyl compounds as novel antiviral candidates for combating the tobacco mosaic virus” (2006).

What all share (format): functional
Assay [1] concerns Tobacco mosaic virus. In words: Antiviral activity against TMV. Set-up: concentration or dose not given beside the values.
Assay [2] relates to Tobacco mosaic virus. In words: Induction of systemic acquired resistance of tobacco plant against TMV at 100 ug/ml by leaf spray treatment.
Assay [3] has as its system Tobacco mosaic virus. In words: Induction of systemic acquired resistance of tobacco plant against TMV at 100 ug/ml by soil treatment.

In the assay on Tobacco mosaic virus [1], `COC(=O)c1n[nH]c(-n2cc(-c3ccc(C)cc3)nn2)n1` registered an Activity of 10%.
With `COC(=O)c1n[nH]c(-n2cc(-c3ccccc3)nn2)n1`, the Activity is recorded as 63% with Tobacco mosaic virus [1], 10% in the assay with Tobacco mosaic virus [2] and 10% with Tobacco mosaic virus [3].
In turn, `NC(=O)c1n[nH]c(-n2cc(-c3ccc(F)cc3)nn2)n1` registered an Activity in the assay with Tobacco mosaic virus [1] of 0%.
On the same count and under the same terms, then `NC(=O)c1n[nH]c(-n2cc(CO)nn2)n1`, with 8%; and `COc1ccc(-c2cn(-c3n[nH]c(C(N)=O)n3)nn2)cc1`, with 0%; and `NC(=O)c1n[nH]c(-n2cc(-c3ccccc3)nn2)n1`, with 0%.
Still for that read-out and setting: then `CCCCCc1ccc(-c2cn(-c3n[nH]c(C(N)=O)n3)nn2)cc1`, with 28%; and `COC(=O)c1n[nH]c(-n2cc(-c3ccc(F)cc3)nn2)n1`, with 12%; and `CCOC(=O)c1cn(-c2n[nH]c(C(=O)OC)n2)nn1`, with 20%.
On the same count and under the same terms, the value for `NC(=O)c1ncn([C@@H]2O[C@H](CO)[C@@H](O)[C@H]2O)n1` [RIBAVIRIN] was 49%; that for `NC(=O)c1n[nH]c(-n2cc(C3(O)CCCC3)nn2)n1` was 13%; that for `NC(=O)c1n[nH]c(-n2cc(C3(O)CCCCC3)nn2)n1` was 0%.
The compound `COC(=O)c1n[nH]c(-n2cc(C3(O)CCCCC3)nn2)n1` had an Activity with Tobacco mosaic virus [1] of 17%.
On the same count and under the same terms, the value for `NC(=O)c1cn(-c2n[nH]c(C(N)=O)n2)nn1` was 0%; that for `COC(=O)c1n[nH]c(-n2cc(COC(C)=O)nn2)n1` was 36%; that for `NC(=O)c1n[nH]c(-n2cc(C3=CCCCC3)nn2)n1` was 7%.
On the same count and under the same terms, then `COC(=O)c1n[nH]c(-n2cc(-c3ccc(OC)cc3)nn2)n1`, with 15%; and `COC(=O)c1n[nH]c(-n2cc(C3(O)CCCC3)nn2)n1`, with 10%.
As to `O=C1NCNC(=O)N1`, the Activity in the assay with Tobacco mosaic virus [1] came to 45%.
For `COC(=O)c1n[nH]c(-n2cc(C3=CCCCC3)nn2)n1`, the Activity stood at 75% in the assay with Tobacco mosaic virus [1], 0% with Tobacco mosaic virus [2] and 0% in the assay with Tobacco mosaic virus [3].
Regarding `CSC(=O)c1cccc2nnsc12` [ACIBENZOLAR-S-METHYL], the figures for the Activity with Tobacco mosaic virus [2] and in the assay with Tobacco mosaic virus [3] were 95% and 96%, respectively.
`CCCCCc1ccc(-c2cn(-c3n[nH]c(C(=O)OC)n3)nn2)cc1`: the Activity in the assay with Tobacco mosaic virus [1] was 23%.
Same read-out and setting: then `Cc1ccc(-c2cn(-c3n[nH]c(C(N)=O)n3)nn2)cc1`, with 6%.
